Results published in PubChem BioAssay AID2060603 (Molecular Pharmacology Branch, DTP, NCI, 2025).

Test system: 422866-222-R5-J1-PDC spheroid viability
Test: Anticancer human tumor 422866-222-R5-J1-PDC patient-derived pancreatic adenocarcinoma cell line growth inhibition [CLK]
Conditions: spheroids with HUVEC and MSC; for IC50: curve of first compound; for viability, T/C: stronger effect = lower value
Text: A high-throughput screen of multi-cell type tumor spheroids was designed to identify active combinations of […] and targeted small molecules. Complex spheroids include a stromal component modeled by human endothelial cells (HUVEC) and fibroblasts modeled by human mesenchymal stem cells (MSCs). The concentration ranges selected for each drug and investigational agent were based upon clinically achievable concentrations if the clinical Cmax of the agent was known.
Compounds. The drugs and investigational agents: cirtuvivint (SM08502; NSC835563), CC-671 (NSC850746), vemurafenib (NSC761431), tapotoclax (NSC804041), sotorasib (NSC818433), adagrasib (NSC831453), MRTX-1133 (NSC836407), BAY2416964 (NSC825713), copanlisib (NSC816437), inavolisib (NSC800729), abemaciclib (NSC768073), osimertinib (NSC779217), entinostat (NSC756642), eltanexor (KPT-8602, NSC794443), venetoclax (NSC766270), ceralasertib (NSC777638), bortezomib (NSC756655), olaparib (NSC753686), talazoparib (NSC767125), alisertib (NSC759677), peposertib (NSC802822), gemcitabine (NSC613327), 5-fluorouracil (NSC19893), SN-38 (NSC673596), oxaliplatin (NSC266046), paclitaxel (NSC125973), and doxorubicin (NSC123127), were obtained from the National Cancer Institute (NCI) Developmental Therapeutics Program Chemical Repository. The FDA-approved anticancer drug set is available from the Developmental Therapeutics Program at https://dtp.cancer.gov/organization/dscb/obtaining/available plates.htm. […] The stock solutions were prepared in dimethyl sulfoxide (DMSO, Sigma-Aldrich, St. Louis, MO, cat. D2650), except for the platinum complexes which were prepared in saline (Quality Biological, Gaithersburg, MD, cat. 114-055-101), at 800-fold the tested concentration and stored at -70 degrees C prior to their use. All drugs and investigational agents were tested over a range starting from a high concentration at or near the clinical Cmax and decreasing in half-log increments. If the clinical Cmax for an agent had not been determined, the highest concentration tested was 10 microM.
Cell Culture. All cells were maintained in an incubator at 37 degrees C and 5% CO2 with 95% humidity. The PDC lines were cultured according to standard operating procedures established by the NCI PDMR. Briefly, all PDCs were thawed and cultured in Matrigel-coated flasks prepared with a working solution of 1X Ham's F-12 nutrient mix, without supplementation (Invitrogen, Waltham, MA, cat. 11765054), 100 U/mL penicillin-streptomycin (Invitrogen, cat. 15140122), and 2.5% Matrigel (Corning Inc., Corning, NY, cat. 354248) for the first three passages. The 947758-054-R-J2-PDC line was cultured in 6B/Colon 1A media, which includes advanced DMEM/F-12 (Thermo Fisher Scientific, cat. 12634028), 10 mM HEPES (Thermo Fisher Scientific, cat. 15630080), 1X GlutaMAX supplement (Thermo Fisher Scientific, cat. 35050061), 0.1 mg/mL primocin (InvivoGen, cat. ant-pm-2), 10% defined fetal bovine serum, heat inactivated (HyClone Laboratories Inc., cat. SH30070.03HI), 1.25 mM N-Acetyl-L-cysteine (Sigma-Aldrich, cat. A9165), 10 mM nicotinamide (Sigma-Aldrich, cat. N0636), 1X B-27 supplement (Thermo Fisher Scientific, cat. 17504044), 1X N-2 supplement (Thermo Fisher Scientific, cat. 17502048), and 10 microM Y-27632 dihydrochloride (Tocris Bioscience, cat. 1254). The 876862-298-R-J1-PDC was cultured in 6E media, which includes all 6B/Colon 1A media components plus 50% L-WRN conditioned media (ATCC, cat. CRL-3276), 50 ng/mL recombinant human EGF recombinant protein (hEGF; Thermo Fisher Scientific, cat. PHG0311), 10 ng/mL recombinant human fibroblast growth factor 10 (hGFG-10; PeproTech, cat. 100-26), 1 ng/mL recombinant human fibroblast growth factor 2 (hFGF-2; PeproTech, cat. 100-18B), and 1 µM prostaglandin E2 (PGE2; Tocris, cat. 2296). The 227483-062-R1-J1-PDC line was cultured in Panc media, containing all 6E components except hFGF-2, with the addition of 500 nM SB-431542 (Selleckchem, cat. S1067) and 10 nM gastrin (Tocris, cat. 3006). […]
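Note: spheroids exposed to agents for seven days before readout.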

IC50 (second compound 0.0316 µM): > 1 µM | IC50 (second compound 0.1 µM): > 1 µM | IC50 (second compound 0.316 µM): > 1 µM | IC50 (second compound 1 µM): > 1 µM | IC50 (second compound 3.16 µM): > 1 µM | IC50 (second compound 10 µM): > 1 µM
Compound: CCN1CCN(Cc2ccc(Nc3ncc(F)c(-c4cc(F)c5nc(C)n(C(C)C)c5c4)n3)nc2)CC1 + CNC(=O)c1ccc(Nc2nc(OC3CCCC3)c3c(-c4ccc5nc(C)oc5c4)c[nH]c3n2)c(OC)c1
viability, T/C (second compound 0.0316 µM, first compound 0.00316 µM): 96.2% | viability, T/C (second compound 0.0316 µM, first compound 0.01 µM): 111% | viability, T/C (second compound 0.0316 µM, first compound 0.0316 µM): 79% | viability, T/C (second compound 0.0316 µM, first compound 0.1 µM): 73.5% | viability, T/C (second compound 0.0316 µM, first compound 0.316 µM): 80.9% | viability, T/C (second compound 0.0316 µM, first compound 1 µM): 96.2% | viability, T/C (second compound 0.1 µM, first compound 0.00316 µM): 81.5% | viability, T/C (second compound 0.1 µM, first compound 0.01 µM): 84.5% | viability, T/C (second compound 0.1 µM, first compound 0.0316 µM): 72.1% | viability, T/C (second compound 0.1 µM, first compound 0.1 µM): 64.4% | viability, T/C (second compound 0.1 µM, first compound 0.316 µM): 77.5% | viability, T/C (second compound 0.1 µM, first compound 1 µM): 88.9% | viability, T/C (second compound 0.316 µM, first compound 0.00316 µM): 67.5% | viability, T/C (second compound 0.316 µM, first compound 0.01 µM): 58.9% | viability, T/C (second compound 0.316 µM, first compound 0.0316 µM): 60.5% | viability, T/C (second compound 0.316 µM, first compound 0.1 µM): 59.3% | viability, T/C (second compound 0.316 µM, first compound 0.316 µM): 65.3% | viability, T/C (second compound 0.316 µM, first compound 1 µM): 71.9% | viability, T/C (second compound 1 µM, first compound 0.00316 µM): 72% | viability, T/C (second compound 1 µM, first compound 0.01 µM): 62.8% | viability, T/C (second compound 1 µM, first compound 0.0316 µM): 59.2% | viability, T/C (second compound 1 µM, first compound 0.1 µM): 47.9% | viability, T/C (second compound 1 µM, first compound 0.316 µM): 62.8% | viability, T/C (second compound 1 µM, first compound 1 µM): 65.6% | viability, T/C (second compound 3.16 µM, first compound 0.00316 µM): 65.2% | viability, T/C (second compound 3.16 µM, first compound 0.01 µM): 51.5% | viability, T/C (second compound 3.16 µM, first compound 0.0316 µM): 56.2% | viability, T/C (second compound 3.16 µM, first compound 0.1 µM): 56.2% | viability, T/C (second compound 3.16 µM, first compound 0.316 µM): 66.5% | viability, T/C (second compound 3.16 µM, first compound 1 µM): 67.9% | viability, T/C (second compound 10 µM, first compound 0.00316 µM): 54.6% | viability, T/C (second compound 10 µM, first compound 0.01 µM): 62.1% | viability, T/C (second compound 10 µM, first compound 0.0316 µM): 54.5% | viability, T/C (second compound 10 µM, first compound 0.1 µM): 58.6% | viability, T/C (second compound 10 µM, first compound 0.316 µM): 63.2% | viability, T/C (second compound 10 µM, first compound 1 µM): 74.2%
